Measurements reported in PubChem BioAssay AID328 (DTP/NCI, 2004).
“And” between values parts separate entries of the source, which are not always exact repeats. Equal entries are not always repeated. Inconclusive results and toxic doses are left out. The calls were made as follows: active = survival T/C of 150% or more; inactive = T/C below 125% in these data.

System: BDF1 mice, P388 leukemia ip, median survival T/C
Experiment: NCI In Vivo Anticancer Drug Screen. Data for tumor model P388 Leukemia (intraperitoneal) in B6D2F1 (BDF1) mice
Conditions: endpoint: median survival time, higher = longer survival
In short: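 Vehicle-dosed animals serve as the reference; survival of compound-dosed, tumour-implanted mice is divided by it.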

[1] = dose: 100.0 mg/kg/injection, schedule: Q04DX003 (ip), vehicle: saline with Tween-80
[2] = dose: 200.0 mg/kg/injection, schedule: Q04DX003 (ip), vehicle: saline with Tween-80
[3] = dose: 400.0 mg/kg/injection, schedule: Q04DX003 (ip), vehicle: saline with Tween-80
[4] = dose: 6.25 mg/kg/injection, schedule: Q04DX003 (ip), vehicle: water
[5] = dose: 25.0 mg/kg/injection, schedule: Q04DX003 (ip), vehicle: water
[6] = dose: 100.0 mg/kg/injection, schedule: Q01DX009 (ip), vehicle: saline with Tween-80
[7] = dose: 200.0 mg/kg/injection, schedule: Q01DX009 (ip), vehicle: saline with Tween-80

Measured: T/C

O=C(/C=C/c1ccncc1)c1ccccc1
inactive: dose: 100.0 mg/kg/injection, schedule: Q01DX001 (ip), vehicle: saline with Tween-80 122 % of control | dose: 200.0 mg/kg/injection, schedule: Q01DX001 (ip), vehicle: saline with Tween-80 113 % of control

CCOC(=O)C(=CN1CCCCC1)C(=O)OCC
inactive: [1] 95 % of control | [2] 100 % of control | [3] 100 % of control

CN(C)c1ccc(C(=O)O)cn1
inactive: dose: 50.0 mg/kg/injection, schedule: Q01DX009 (ip), vehicle: saline 100 % of control | dose: 100.0 mg/kg/injection, schedule: Q01DX009 (ip), vehicle: saline 101 % of control | dose: 100.0 mg/kg/injection, schedule: Q04DX003 (ip), vehicle: saline 102 % of control | dose: 200.0 mg/kg/injection, schedule: Q01DX007 (ip), vehicle: saline 110 % of control | dose: 200.0 mg/kg/injection, schedule: Q01DX009 (ip), vehicle: saline 92 % of control | dose: 200.0 mg/kg/injection, schedule: Q04DX003 (ip), vehicle: saline 100 % of control | dose: 300.0 mg/kg/injection, schedule: Q01DX007 (ip), vehicle: saline 108 % of control | dose: 400.0 mg/kg/injection, schedule: Q01DX007 (ip), vehicle: saline 100 % of control | dose: 400.0 mg/kg/injection, schedule: Q04DX003 (ip), vehicle: saline 109 % of control | dose: 500.0 mg/kg/injection, schedule: Q01DX007 (ip), vehicle: saline 106 % of control | dose: 600.0 mg/kg/injection, schedule: Q01DX007 (ip), vehicle: saline 110 % of control

c1cc[c]([Sb]([c]2ccccc2)[c]2ccccc2)cc1
inactive: dose: 20.0 mg/kg/injection, schedule: Q04DX003 (ip), vehicle: saline with Tween-80 120 % of control

Cc1ccc(COC(=O)c2ccccc2)cc1
inactive: dose: 100.0 mg/kg/injection, schedule: Q01DX001 (ip), vehicle: Klucel (hydroxypropylcellulose) (HPC) 104 % of control | dose: 200.0 mg/kg/injection, schedule: Q01DX001 (ip), vehicle: Klucel (hydroxypropylcellulose) (HPC) 95 % of control | dose: 400.0 mg/kg/injection, schedule: Q01DX001 (ip), vehicle: Klucel (hydroxypropylcellulose) (HPC) 104 % of control

CS(=O)(=O)OCCCCCOS(C)(=O)=O
inactive: dose: 12.5 mg/kg/injection, schedule: Q01DX009 (ip), vehicle: saline 95 % of control | dose: 25.0 mg/kg/injection, schedule: Q01DX009 (ip), vehicle: saline 100 % of control | dose: 50.0 mg/kg/injection, schedule: Q04DX003 (ip), vehicle: saline 113 % of control

CCCCNS(=O)(=O)c1ccc(OC)c(N)c1
inactive: dose: 100.0 mg/kg/injection, schedule: Q04DX003 (ip), vehicle: Klucel (hydroxypropylcellulose) (HPC) 95 % of control | dose: 200.0 mg/kg/injection, schedule: Q04DX003 (ip), vehicle: Klucel (hydroxypropylcellulose) (HPC) 100 % of control | dose: 400.0 mg/kg/injection, schedule: Q04DX003 (ip), vehicle: Klucel (hydroxypropylcellulose) (HPC) 100 % of control

CC1CNCC(C)N1C(=O)c1ccccc1 (stereo unspecified)
inactive: dose: 0.1 mg/kg/injection, schedule: Q01DX009 (ip), vehicle: water 96 % of control | dose: 0.2 mg/kg/injection, schedule: Q01DX009 (ip), vehicle: water 105 % of control | dose: 0.4 mg/kg/injection, schedule: Q01DX009 (ip), vehicle: water 115 % of control | dose: 0.78 mg/kg/injection, schedule: Q04DX003 (ip), vehicle: water 97 % of control | dose: 1.56 mg/kg/injection, schedule: Q04DX003 (ip), vehicle: water 104 % of control | dose: 3.12 mg/kg/injection, schedule: Q04DX003 (ip), vehicle: water 104 % of control | [4] 88 % of control

O=C1C=CC(=O)C23CC=CCC12C(=O)c1ccccc1C3=O (stereo unspecified)
inactive: [4] 107 % of control | dose: 12.5 mg/kg/injection, schedule: Q04DX003 (ip), vehicle: water 107 % of control | [5] 92 % of control

CN(N=O)c1ccc(/C=C/c2ccnc3ccccc23)cc1
inactive: dose: 100.0 mg/kg/injection, schedule: Q01DX009 (ip), vehicle: saline sonified 115 % of control

O=C1C(Cl)=C(Sc2nc3ccccc3s2)C(=O)c2ccccc21
inactive: dose: 50.0 mg/kg/injection, schedule: Q01DX005 (ip), vehicle: saline with Tween-80 112 % of control

CC(C)C(NC(=O)CN)C(=O)OCCCCS(=O)(=O)c1ccc(CO)cc1 (stereo unspecified)
inactive: dose: 50.0 mg/kg/injection, schedule: Q01DX005 (ip), vehicle: suspension in saline 100 % of control | dose: 100.0 mg/kg/injection, schedule: Q01DX005 (ip), vehicle: suspension in saline 100 % of control | dose: 200.0 mg/kg/injection, schedule: Q01DX005 (ip), vehicle: suspension in saline 95 % of control

COC1CC(N=[N+]=[N-])C(OS(C)(=O)=O)C(C)O1 (stereo unspecified)
inactive: [1] 101 % of control | [2] 102 % of control | [3] 101 % of control

Cc1ccccc1CC(N)C(=O)O (stereo unspecified)
inactive: dose: 50.0 mg/kg/injection, schedule: Q01DX009 (ip), vehicle: saline with Tween-80 92 % of control | [6] 92 % of control | [7] 90 % of control

O=C(OC(=O)c1ccc([N+](=O)[O-])cc1)c1ccc([N+](=O)[O-])cc1
inactive: dose: 100.0 mg/kg/injection, schedule: Q04DX003 (sc), vehicle: olive oil, sesame oil, peanut oil 110 % of control | dose: 200.0 mg/kg/injection, schedule: Q04DX003 (sc), vehicle: olive oil, sesame oil, peanut oil 105 % of control | dose: 400.0 mg/kg/injection, schedule: Q04DX003 (sc), vehicle: olive oil, sesame oil, peanut oil 105 % of control

COCCCNC1=C(Cl)C(=O)c2ccccc2C1=O
inactive: dose: 50.0 mg/kg/injection, schedule: Q01DX009 (ip), vehicle: Klucel (hydroxypropylcellulose) (HPC) 106 % of control | dose: 100.0 mg/kg/injection, schedule: Q01DX009 (ip), vehicle: Klucel (hydroxypropylcellulose) (HPC) 113 % of control | dose: 200.0 mg/kg/injection, schedule: Q01DX009 (ip), vehicle: Klucel (hydroxypropylcellulose) (HPC) 109 % of control

c1ccc2c(c1)ccc1cc3c(ccc4ccccc43)cc12
inactive: [6] 120 % of control | [1] 118 % of control | [7] 112 % of control | [2] 109 % of control | [3] 109 % of control

O=P(c1ccccc1)(N1CC1)N1CC1
inactive: dose: 7.5 mg/kg/injection, schedule: Q01DX009 (ip), vehicle: saline 109 % of control | dose: 15.0 mg/kg/injection, schedule: Q01DX009 (ip), vehicle: saline 123 % of control | dose: 30.0 mg/kg/injection, schedule: Q01DX009 (ip), vehicle: saline 119 % of control

CC(=O)Nc1cc(NC(C)=O)cc(N(CCO)CCO)c1
inactive: dose: 3.12 mg/kg/injection, schedule: Q01DX009 (ip), vehicle: water 99 % of control | dose: 6.25 mg/kg/injection, schedule: Q01DX009 (ip), vehicle: water 90 % of control and 111 % of control | dose: 12.5 mg/kg/injection, schedule: Q01DX009 (ip), vehicle: water 93 % of control and 101 % of control | dose: 25.0 mg/kg/injection, schedule: Q01DX009 (ip), vehicle: water 97 % of control and 101 % of control | [5] 89 % of control | dose: 50.0 mg/kg/injection, schedule: Q01DX009 (ip), vehicle: water 117 % of control | dose: 50.0 mg/kg/injection, schedule: Q04DX003 (ip), vehicle: water 100 % of control | dose: 100.0 mg/kg/injection, schedule: Q04DX003 (ip), vehicle: water 104 % of control | dose: 200.0 mg/kg/injection, schedule: Q04DX003 (ip), vehicle: water 112 % of control | dose: 400.0 mg/kg/injection, schedule: Q04DX003 (ip), vehicle: water 108 % of control

Nc1nc(F)nc2nc[nH]c12
inactive: dose: 10.0 mg/kg/injection, schedule: Q01DX009 (ip), vehicle: Klucel (hydroxypropylcellulose) (HPC) 121 % of control | dose: 20.0 mg/kg/injection, schedule: Q01DX009 (ip), vehicle: Klucel (hydroxypropylcellulose) (HPC) 121 % of control

COc1cccc(CCNC(=O)CC(=O)O)c1OC
inactive: [1] 100 % of control | [2] 105 % of control | [3] 100 % of control
